Measurements: patent US8759366B2, “Aminopyrimidines as SYK inhibitors” (Merck Sharp & Dohme Corp., priority 2009, dated 2014)
Where a name gives a salt, the structure may show the parent alone.

Each molecule was assayed against rhSYK (Homo sapiens (Human), UniProt P43405). Settings: read-out: rhSYK activity.
In the case of `Cc1cc(Nc2nccc(C(F)(F)F)n2)cc(-c2cnc(C3(O)CCN(S(=O)(=O)NC(=O)OC(C)(C)C)CC3)s2)c1` [Example 48, tert-butyl({4-hydroxy-4-[5-(3-methyl-5-{[4-(trifluoromethyl)pyrimidin-2-yl]amino}phenyl)-1,3-thiazol-2-yl]piperidin-1-yl}sulfonyl)carbamate], the IC50 is reported as under 100 nM. With `Cc1cc(Nc2nccc(C(F)(F)F)n2)cc(-c2cnc(C3(O)CCN(S(N)(=O)=O)CC3)s2)c1` [Example 49, 4-hydroxy-4-[5-(3-methyl-5-{[4-(trifluoromethyl)pyrimidin-2-yl]amino}phenyl)-1,3-thiazol-2-yl]piperidine-1-sulfonamide] the IC50 was under 100 nM. Molecule `Cc1cc(Nc2nccc(C(F)(F)F)n2)cc(-c2cnc(C3(O)CCN(S(=O)(=O)c4ccccc4)CC3)s2)c1` [Example 50, 4-[5-(3-methyl-5-{[4-(trifluoromethyl)pyrimidin-2-yl]amino}phenyl)-1,3-thiazol-2-yl]-1-(phenylsulfonyl)piperidin-4-ol] has an IC50 of 100 to 1000 nM. For `CC(=O)N1CCC(O)(c2ncc(-c3cc(C)cc(Nc4nccc(C(F)(F)F)n4)c3)s2)CC1` [Example 51, 1-(4-hydroxy-4-[5-(3-methyl-5-{[4-(trifluoromethyl)pyrimidin-2-yl]amino}phenyl)-1,3-thiazol-2-yl]piperidin-1-yl)ethanone], the IC50 was under 100 nM. With `CNC(=O)N1CCC(O)(c2ncc(-c3cc(C)cc(Nc4nccc(C(F)(F)F)n4)c3)s2)CC1` [Example 52, 4-hydroxy-N-methyl-4-[5-(3-methyl-5-{[4-(trifluoromethyl)pyrimidin-2-yl]amino}phenyl)-1,3-thiazol-2-yl]piperidine-1-carboxamide] the IC50 was under 100 nM. In the case of `Cc1cc(Nc2nccc(C(F)(F)F)n2)cc(-c2cnc(C3(O)CN(C(C)(C)C(=O)O)C3)s2)c1` [Example 53(1), 2-{3-Hydroxy-3-[5-(3-methyl-5-{[4-(trifluoromethyl)pyrimidin-2-yl]amino}phenyl)-1,3-thiazol-2-yl]azetidin-1-yl}-2-methylpropanoic acid], the IC50 is reported as under 100 nM. In the case of `Cc1cc(Nc2nccc(C(F)(F)F)n2)cc(-c2cnc(C3(O)CN(C(C)(C)C(=O)OC(C)(C)C(=O)O)C3)s2)c1` [Example 53(2), 2-[(2-{3-Hydroxy-3-[5-(3-methyl-5-{[4-(trifluoromethyl)pyrimidin-2-yl]amino}phenyl)-1,3-thiazol-2-yl]azetidin-1-yl}-2-methylpropanoyl)oxy]-2-methylpropanoic acid], the IC50 is reported as under 100 nM. In the case of `Cc1cc(Nc2nccc(C(F)(F)F)n2)cc(-c2cnc([C@]3(O)CC[C@@H](c4n[nH]c(=O)o4)CC3)s2)c1` [Example 55, 5-{cis-4-hydroxy-4-[5-(3-methyl-5-{[4-(trifluoromethyl)pyrimidin-2-yl]amino}phenyl)-1,3-thiazol-2-yl]cyclohexyl}-1,3,4-oxadiazol-2(3H)-one], the IC50 is reported as under 100 nM. Molecule `Cc1cc(Nc2nccc(C(C)C)n2)cc(-c2cnc(C3(O)CCC3)s2)c1` [Example 56, 1-[5-(3-methyl-5-{[4-(propan-2-yl)pyrimidin-2-yl]amino}phenyl)-1,3-thiazol-2-yl]cyclobutanol HCl salt] has an IC50 of under 100 nM. In the case of `CC(O)(CO)c1ncc(-c2cc(F)cc(Nc3ncc(F)c(C4CC4)n3)c2)s1` (stereo not shown) [Example 57, 2-(5-{3-[(4-cyclopropyl-5-fluoropyrimidin-2-yl)amino]-5-fluorophenyl}-1,3-thiazol-2-yl)propane-1,2-diol], the IC50 is reported as under 100 nM. `Cc1cc(Nc2ncc(F)c(C3CC3)n2)cc(-c2cnc(C(O)(CO)C(F)(F)F)s2)c1` (stereo not shown) [Example 58, 2-(5-{3-[(4-cyclopropyl-5-fluoropyrimidin-2-yl)amino]-5-methylphenyl}-1,3-thiazol-2-yl)-3,3,3-trifluoropropane-1,2-diol] gave an IC50 of under 100 nM. `Cc1cc(Nc2nccc(C(F)(F)F)n2)cc(-c2cnc(C3(NS(C)(=O)=O)COC3)s2)c1` [Example 60, N-{3-[5-(3-methyl-5-{[4-(trifluoromethyl)pyrimidin-2-yl]amino}phenyl)-1,3-thiazol-2-yl]-oxetan-3-yl}methanesulfonamide] showed an IC50 of under 100 nM. In the case of `Cc1cc(Nc2nccc(C(F)(F)F)n2)cc(-c2cnc(C3(NS(N)(=O)=O)COC3)s2)c1` [Example 63, N-{3-[5-(3-methyl-5-{[4-(trifluoromethyl)pyrimidin-2-yl]amino}phenyl)-1,3-thiazol-2-yl]oxetan-3-yl}sulfuric diamide], the IC50 is reported as under 100 nM. `Cc1cc(Nc2nccc(C(F)(F)F)n2)cc(-c2cnc(C3(NC(N)=O)CCC3)s2)c1` [Example 64, 1-{1-[5-(3-methyl-5-{[4-(trifluoromethyl)pyrimidin-2-yl]amino}phenyl)-1,3-thiazol-2-yl]cyclobutyl}urea] gave an IC50 of under 100 nM. Molecule `Cc1cc(Nc2nccc(C(F)(F)F)n2)cc(-c2cnc(C(NC(=O)NC(N)=O)(C3CC3)C3CC3)s2)c1` [Example 65, N-{dicyclopropyl[5-(3-methyl-5-{[4-(trifluoromethyl)pyrimidin-2-yl]amino}phenyl)-1,3-thiazol-2-yl]methyl}dicarbonimidic diamide] has an IC50 of under 100 nM. Work on `Cc1cc(Nc2nccc(C(F)(F)F)n2)cc(-c2cnc(C(NC(=O)C3(C(N)=O)CC3)(C3CC3)C3CC3)s2)c1` [Example 67, N-{dicyclopropyl[5-(3-methyl-5-{[4-(trifluoromethyl)pyrimidin-2-yl]amino}phenyl)-1,3-thiazol-2-yl]methyl}cyclopropane-1,1-dicarboxamide] yielded an IC50 of under 100 nM. `Cc1cc(Nc2nccc(C(=O)O)n2)cc(-c2cnc(C(C)(O)C(F)(F)F)s2)c1` (stereo not shown) [Example 68, 2-({3-methyl-5-[2-(1,1,1-trifluoro-2-hydroxypropan-2-yl)-1,3-thiazol-5-yl]phenyl}amino)-pyrimidine-4-carboxylic acid] showed an IC50 of 1000 to 10000 nM. With `Cc1cc(Nc2nccc(C(=O)N3CCNCC3)n2)cc(-c2cnc(C(C)(O)C(F)(F)F)s2)c1` (stereo not shown) [Example 69, [2-({3-methyl-5-[2-(1,1,1-trifluoro-2-hydroxypropan-2-yl)-1,3-thiazol-5-yl]phenyl}amino)-pyrimidin-4-yl](piperazin-1-yl)methanone] the IC50 was under 100 nM. Molecule `CC(C)(c1ncc(-c2cc(Nc3nccc(C(F)(F)F)n3)cc([N+](=O)[O-])c2)s1)S(N)(=O)=O` [Example 70, 2-[5-(3-nitro-5-{[4-(trifluoromethyl)pyrimidin-2-yl]amino}phenyl)-1,3-thiazol-2-yl]propane-2-sulfonamide] has an IC50 of 100 to 1000 nM. With `CC(C)(c1ncc(-c2cc(N)cc(Nc3nccc(C(F)(F)F)n3)c2)s1)S(N)(=O)=O` [Example 71, 2-[5-(3-amino-5-{[4-(trifluoromethyl)pyrimidin-2-yl]amino}phenyl)-1,3-thiazol-2-yl]propane-2-sulfonamide] the IC50 was under 100 nM. Work on `CC(=O)Nc1cc(Nc2nccc(C(F)(F)F)n2)cc(-c2cnc(C(C)(C)S(N)(=O)=O)s2)c1` [Example 72, N-(3-[2-(2-sulfamoylpropan-2-yl)-1,3-thiazol-5-yl]-5-{[4-(trifluoromethyl)pyrimidin-2-yl]amino}phenyl)acetamide] yielded an IC50 of under 100 nM. `Cc1cc(Nc2nccc(C(F)(F)F)n2)cc(-c2cnc(C(C)(C)S(C)(=O)=O)s2)c1` [Example 73, N-(3-methyl-5-{2-[2-(methylsulfonyl)propan-2-yl]-1,3-thiazol-5-yl}phenyl)-4-(trifluoromethyl)pyrimidin-2-amine] showed an IC50 of under 100 nM. `CC(=O)NS(=O)(=O)C1(c2ncc(-c3cc(C)cc(Nc4nccc(C(F)(F)F)n4)c3)s2)CCC1` [Example 74, N-({1-[5-(3-methyl-5-{[4-(trifluoromethyl)pyrimidin-2-yl]amino}phenyl)-1,3-thiazol-2-yl]-cyclobutyl}sulfonyl)acetamide] showed an IC50 of under 100 nM. For `Cc1cc(Nc2nccc(C(F)(F)F)n2)cc(-c2cnc(CS(N)(=O)=O)s2)c1` [Example 75, 1-[5-(3-methyl-5-{[4-(trifluoromethyl)pyrimidin-2-yl]amino}phenyl)-1,3-thiazol-2-yl]methanesulfonamide], the IC50 was under 100 nM. With `COC(=O)[C@H](C)Cc1ncc(-c2cc(C)cc(Nc3nccc(C(F)(F)F)n3)c2)s1` [Example 76, Methyl (2R)-2-methyl-3-[5-(3-methyl-5-{[4-(trifluoromethyl)pyrimidin-2-yl]amino}phenyl)-1,3-thiazol-2-yl]propanoate] the IC50 was under 100 nM. `Cc1cc(Nc2nccc(C(F)(F)F)n2)cc(-c2cncs2)c1` [Intermediate 4, N-[3-methyl-5-(1,3-thiazol-5-yl)phenyl]-4-(trifluoromethyl)pyrimidin-2-amine] was tested, and the IC50 was under 100 nM. For `FC(F)(F)c1ccnc(Nc2cccc(-c3cncs3)c2)n1` [Intermediate 7, N-[3-(1,3-thiazol-5-yl)phenyl]-4-(trifluoromethyl)pyrimidin-2-amine], the IC50 was 100 to 1000 nM. `FC(F)(F)c1ccnc(Nc2cc(Br)cc(-c3cncs3)c2)n1` [Intermediate 11, N-[3-bromo-5-(1,3-thiazol-5-yl)phenyl]-4-(trifluoromethyl)pyrimidin-2-amine] showed an IC50 of 100 to 1000 nM. `Cc1cc(Nc2ncc(Cl)cn2)cc(-c2cncs2)c1` [Intermediate 48, 5-Chloro-N-[3-methyl-5-(1,3-thiazol-5-yl)phenyl]pyrimidin-2-amine] was tested, and the IC50 was 100 to 1000 nM. Work on `Cc1cc(Nc2ncc(F)c(C)n2)cc(-c2cncs2)c1` [Intermediate 49, 5-Fluoro-4-methyl-N-[3-methyl-5-(1,3-thiazol-5-yl)phenyl]pyrimidin-2-amine] yielded an IC50 of under 100 nM. With `Cc1cc(Nc2ncc(F)cn2)cc(-c2cncs2)c1` [Intermediate 50, 5-Fluoro-N-[3-methyl-5-(1,3-thiazol-5-yl)phenyl]pyrimidin-2-amine] the IC50 was 100 to 1000 nM. In the case of `CCOC(=O)C1CCC(O)(c2ncc(-c3cc(C)cc(N(C(=O)OC(C)(C)C)c4nccc(C(F)(F)F)n4)c3)s2)CC1` (stereo not shown) [Intermediate 119, Ethyl 4-[5-(3-{(tert-butoxycarbonyl)[4-(trifluoromethyl)pyrimidin-2-yl]amino}-5-methylphenyl)-1,3-thiazol-2-yl]-4-hydroxycyclohexanecarboxylate], the IC50 is reported as 1000 to 10000 nM. In the case of `Fc1ccc(Nc2nccc(C(F)(F)F)n2)cc1Br` [N-(3-bromo-4-fluorophenyl)-4-(trifluoromethyl)pyrimidin-2-amine], the IC50 is reported as 1000 to 10000 nM. Work on `FC(F)(F)c1cc(Br)cc(Nc2nccc(C(F)(F)F)n2)c1` [N-[3-bromo-5-(trifluoromethyl)phenyl]-4-(trifluoromethyl)pyrimidin-2-amine] yielded an IC50 of 1000 to 10000 nM.
